Test results from patent publication US11524966B1 (Valo Early Discovery, Inc., priority 2017, dated 2022).

Biological target: T1, USP28 (USP28-5(1-1077)-TEV-6*His; LifeSensors) (Homo sapiens, UniProt Q96RU2)
T1 construct: construct USP28 (USP28-5(1-1077)-TEV-6*His; LifeSensors); TEV cleavage site (C); 6xHis (C); purchased LifeSensors
T1 sequence (Q96RU2 1-1077): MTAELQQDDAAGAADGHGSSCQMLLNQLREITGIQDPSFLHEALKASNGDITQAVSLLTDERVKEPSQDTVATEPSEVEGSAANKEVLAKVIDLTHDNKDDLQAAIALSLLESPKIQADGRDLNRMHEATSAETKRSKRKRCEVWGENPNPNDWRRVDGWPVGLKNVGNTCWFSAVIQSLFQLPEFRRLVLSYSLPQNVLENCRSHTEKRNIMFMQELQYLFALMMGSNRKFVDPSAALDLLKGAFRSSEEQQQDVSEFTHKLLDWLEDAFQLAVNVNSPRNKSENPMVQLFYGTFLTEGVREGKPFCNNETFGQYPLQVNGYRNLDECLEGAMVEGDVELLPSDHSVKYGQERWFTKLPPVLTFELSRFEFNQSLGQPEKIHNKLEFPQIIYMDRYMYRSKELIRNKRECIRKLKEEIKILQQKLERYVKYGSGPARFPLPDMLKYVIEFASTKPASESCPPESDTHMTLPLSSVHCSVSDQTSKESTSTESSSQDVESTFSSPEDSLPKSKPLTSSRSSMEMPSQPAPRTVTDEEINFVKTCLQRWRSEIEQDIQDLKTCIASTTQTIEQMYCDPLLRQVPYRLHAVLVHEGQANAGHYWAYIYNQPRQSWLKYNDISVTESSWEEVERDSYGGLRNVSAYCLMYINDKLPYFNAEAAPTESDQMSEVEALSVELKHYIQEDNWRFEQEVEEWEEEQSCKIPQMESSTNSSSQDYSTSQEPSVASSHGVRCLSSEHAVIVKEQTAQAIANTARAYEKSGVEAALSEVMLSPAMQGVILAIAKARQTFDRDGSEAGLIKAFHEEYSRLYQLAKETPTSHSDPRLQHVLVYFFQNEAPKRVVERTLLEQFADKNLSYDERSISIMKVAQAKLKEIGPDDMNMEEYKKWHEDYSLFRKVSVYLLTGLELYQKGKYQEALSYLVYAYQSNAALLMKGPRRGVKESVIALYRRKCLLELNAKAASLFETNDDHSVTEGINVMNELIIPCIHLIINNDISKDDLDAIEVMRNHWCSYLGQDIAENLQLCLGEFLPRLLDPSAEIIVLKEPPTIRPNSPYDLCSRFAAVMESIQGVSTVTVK
Assay: Ubiquitin-Rhodamine 110 Assay for USP28 Activity, Example A-1(b)
Format: biochemical
Conditions: Ubiquitin-Rhodamine 110 assay, Example A-1(b)
Outline: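 Single-point screening used 10 μM compound with 90 min room-temperature incubation; follow-up dose-responses (25 μM top, 3-fold) used 75 pM USP28 1-1077 construct, 30 min compound preincubation, 25 nM Ub-Rh110, 20 min reaction, citric acid quench. Rh110 fluorescence normalised to no-enzyme and DMSO controls; IC50 from 4-parameter logistic fit.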

SMILES: Cc1ccc2c(N)c(C(=O)N[C@H]3COc4cc(N5CCNCC5)cc(F)c4C3)oc2n1 [Example 169, 3-amino-N-[(3R)-5-fluoro-7-(piperazin-1-yl)-3,4-dihydro-2H-1-benzopyran-3-yl]-6-methylfuro[2,3-b]pyridine-2-carboxamide]
- USP28 A-1(b) IC50 range: + (>2 μM)
